Measured values as given in patent publication US9739791B2, “Methods for predicting and treating myocardial damage” (THE CLEVELAND CLINIC FOUNDATION, priority 2010, dated 2017).

Test system: infarct size after ischemia reperfusion (LAD ligation)
Test: LAD ligation/reperfusion, infarct size as percent area at risk after CoQ10 pretreatment
Type: in vivo
Settings: WT mice; CoQ10 ip 1 mg/kg/day for 3 days prior to ischemia reperfusion; compared to WT controls; p=0.15
Protocol: FIG. 4 is a plot comparing infarct size as a percentage of AAR in WT and ApoAI-null mice given saline or Coenzyme Q10 daily for 3 days prior to ischemia induced by 30 minutes of LAD ligation and 3 hours of reperfusion (data represent mean±SD; n=4-6 per group; *p<0.0001 compared to strain-matched NT control).
All animal protocols were approved by the Animal Research Committee, and all animals were housed in the Association for Assessment and Accreditation of Laboratory Animal Care International-approved animal facility of the Cleveland Clinic. Anterior wall MI (AMT) was performed as recently described (Askari, A. T. et al., J. Exp. Med. 197:615-624, 2003). Briefly, AMI was induced in eight 20- to 25-g male littermate wild-type (C57BL/6J), ApoA1 heterozygote (ApoA1^+/−) or knockout (ApoA1^−/−) mice by ligation of the LAD 7-0 Prolene. Blanching and dysfunction of the anterior wall verified LAD ligation. After 30 minutes of LAD ligation, microsurgical scissors were used to cut the knot in the ligature at the level of the myocardium, and animals subsequently underwent reperfusion for 3 hours. […] Animals were kept on ventilator for the entire 3 hours of reperfusion and subsequently analyzed for area at risk and infarct size using 1% solution of 2,3,5-triphenyltetrazolium chloride (TTC) at 37° C. […]

COC1=C(OC)C(=O)C(C/C=C(\C)CC/C=C(\C)CC/C=C(\C)CC/C=C(\C)CC/C=C(\C)CC/C=C(\C)CC/C=C(\C)CC/C=C(\C)CC/C=C(\C)CCC=C(C)C)=C(C)C1=O [CoQ10, Coenzyme Q10]
decrease in IS/% AAR: non-significant trend
